Experimental data: PubChem BioAssay AID1963851 (Molecular Pharmacology Branch, DTP, NCI, 2024)

Test system: 188146-221-R-J1-PDC complex spheroid viability
Assay: Anticancer human tumor 188146-221-R-J1-PDC patient-derived colon adenocarcinoma cell line growth inhibition [POLQ]
Details: for IC50: curve of first compound; for viability, T/C: stronger effect = lower value
How it was run: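 PDC + HUVEC + MSC complex spheroids; POLQ inhibitors ± partner drugs; top conc. at/near clinical Cmax, else 10 microM (SN-38 1 microM), half-log dilutions; 37 degrees C, 5% CO2.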

[1] = second compound 0.0316 µM, first compound 0.0316 µM
[2] = second compound 0.0316 µM, first compound 0.1 µM
[3] = second compound 0.0316 µM, first compound 0.316 µM
[4] = second compound 0.0316 µM, first compound 1 µM
[5] = second compound 0.0316 µM, first compound 3.16 µM
[6] = second compound 0.0316 µM, first compound 10 µM
[7] = second compound 0.1 µM, first compound 0.0316 µM
[8] = second compound 0.1 µM, first compound 0.1 µM
[9] = second compound 0.1 µM, first compound 0.316 µM
[10] = second compound 0.1 µM, first compound 1 µM
[11] = second compound 0.1 µM, first compound 3.16 µM
[12] = second compound 0.1 µM, first compound 10 µM
[13] = second compound 0.316 µM, first compound 0.0316 µM
[14] = second compound 0.316 µM, first compound 0.1 µM
[15] = second compound 0.316 µM, first compound 0.316 µM
[16] = second compound 0.316 µM, first compound 1 µM
[17] = second compound 0.316 µM, first compound 3.16 µM
[18] = second compound 0.316 µM, first compound 10 µM
[19] = second compound 1 µM, first compound 0.0316 µM
[20] = second compound 1 µM, first compound 0.1 µM
[21] = second compound 1 µM, first compound 0.316 µM
[22] = second compound 1 µM, first compound 1 µM
[23] = second compound 1 µM, first compound 3.16 µM
[24] = second compound 1 µM, first compound 10 µM
[25] = second compound 3.16 µM, first compound 0.0316 µM
[26] = second compound 3.16 µM, first compound 0.1 µM
[27] = second compound 3.16 µM, first compound 0.316 µM
[28] = second compound 3.16 µM, first compound 1 µM
[29] = second compound 3.16 µM, first compound 3.16 µM
[30] = second compound 3.16 µM, first compound 10 µM
[31] = second compound 10 µM, first compound 0.0316 µM
[32] = second compound 10 µM, first compound 0.1 µM
[33] = second compound 10 µM, first compound 0.316 µM
[34] = second compound 10 µM, first compound 1 µM
[35] = second compound 10 µM, first compound 3.16 µM
[36] = second compound 10 µM, first compound 10 µM
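Note: spheroids exposed to compounds for seven days.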
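Throughout, for viability, T/C: 100% = DMSO vehicle control viability.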

Structure (SMILES): CC(=O)O[C@H]1C(=O)[C@@]2(C)[C@H]([C@H](OC(=O)c3ccccc3)[C@]3(O)C[C@H](OC(=O)[C@H](O)[C@@H](NC(=O)c4ccccc4)c4ccccc4)C(C)=C1C3(C)C)[C@]1(OC(C)=O)CO[C@@H]1C[C@@H]2O + Cc1cccc(N(C)C(=O)C2C(O)CCN2c2nc(C)cc(C(F)(F)F)c2C#N)c1
- IC50 (second compound 0.0316 µM): 14.8 nM
- IC50 (second compound 0.1 µM): 13.4 nM
- IC50 (second compound 0.316 µM): 11.3 nM
- IC50 (second compound 1 µM): 13.5 nM
- IC50 (second compound 3.16 µM): 9.98 nM
- IC50 (second compound 10 µM): 9.95 nM
- viability, T/C (second compound 0.0316 µM, first compound 0.00949 µM): 69%
- viability, T/C (second compound 0.0316 µM, first compound 0.03 µM): 20.6%
- viability, T/C (second compound 0.0316 µM, first compound 0.0949 µM): 11.7%
- viability, T/C (second compound 0.0316 µM, first compound 0.3 µM): 12.8%
- viability, T/C (second compound 0.0316 µM, first compound 0.949 µM): 13.3%
- viability, T/C (second compound 0.0316 µM, first compound 3 µM): 13.3%
- viability, T/C (second compound 0.1 µM, first compound 0.00949 µM): 61.8%
- viability, T/C (second compound 0.1 µM, first compound 0.03 µM): 23.3%
- viability, T/C (second compound 0.1 µM, first compound 0.0949 µM): 12%
- viability, T/C (second compound 0.1 µM, first compound 0.3 µM): 11.6%
- viability, T/C (second compound 0.1 µM, first compound 0.949 µM): 12.8%
- viability, T/C (second compound 0.1 µM, first compound 3 µM): 12.5%
- viability, T/C (second compound 0.316 µM, first compound 0.00949 µM): 55%
- viability, T/C (second compound 0.316 µM, first compound 0.03 µM): 22.4%
- viability, T/C (second compound 0.316 µM, first compound 0.0949 µM): 13.6%
- viability, T/C (second compound 0.316 µM, first compound 0.3 µM): 12.6%
- viability, T/C (second compound 0.316 µM, first compound 0.949 µM): 13.3%
- viability, T/C (second compound 0.316 µM, first compound 3 µM): 11.6%
- viability, T/C (second compound 1 µM, first compound 0.00949 µM): 63.3%
- viability, T/C (second compound 1 µM, first compound 0.03 µM): 19.4%
- viability, T/C (second compound 1 µM, first compound 0.0949 µM): 13.4%
- viability, T/C (second compound 1 µM, first compound 0.3 µM): 11%
- viability, T/C (second compound 1 µM, first compound 0.949 µM): 13%
- viability, T/C (second compound 1 µM, first compound 3 µM): 13.8%
- viability, T/C (second compound 3.16 µM, first compound 0.00949 µM): 51.5%
- viability, T/C (second compound 3.16 µM, first compound 0.03 µM): 17.5%
- viability, T/C (second compound 3.16 µM, first compound 0.0949 µM): 14.1%
- viability, T/C (second compound 3.16 µM, first compound 0.3 µM): 12.1%
- viability, T/C (second compound 3.16 µM, first compound 0.949 µM): 13.2%
- viability, T/C (second compound 3.16 µM, first compound 3 µM): 16.4%
- viability, T/C (second compound 10 µM, first compound 0.00949 µM): 51.4%
- viability, T/C (second compound 10 µM, first compound 0.03 µM): 17.4%
- viability, T/C (second compound 10 µM, first compound 0.0949 µM): 14.1%
- viability, T/C (second compound 10 µM, first compound 0.3 µM): 14.8%
- viability, T/C (second compound 10 µM, first compound 0.949 µM): 14.6%
- viability, T/C (second compound 10 µM, first compound 3 µM): 14.5%

Structure (SMILES): COc1cc(C2c3cc4c(cc3C(OC3OC5COC(C)OC5C(O)C3O)C3COC(=O)C23)OCO4)cc(OC)c1O (stereo unspecified) + Cc1cccc(N(C)C(=O)C2C(O)CCN2c2nc(C)cc(C(F)(F)F)c2C#N)c1
- IC50 (second compound 0.0316 µM): 887 nM
- IC50 (second compound 0.1 µM): 789 nM
- IC50 (second compound 0.316 µM): 723 nM
- IC50 (second compound 1 µM): 748 nM
- IC50 (second compound 3.16 µM): 664 nM
- IC50 (second compound 10 µM): 483 nM
- viability, T/C [1]: 115%
- viability, T/C [2]: 99.9%
- viability, T/C [3]: 77.3%
- viability, T/C [4]: 47.6%
- viability, T/C [5]: 27.5%
- viability, T/C [6]: 25.9%
- viability, T/C [7]: 111%
- viability, T/C [8]: 99.2%
- viability, T/C [9]: 77.8%
- viability, T/C [10]: 43.5%
- viability, T/C [11]: 25.1%
- viability, T/C [12]: 28.3%
- viability, T/C [13]: 108%
- viability, T/C [14]: 102%
- viability, T/C [15]: 71.7%
- viability, T/C [16]: 43%
- viability, T/C [17]: 26.4%
- viability, T/C [18]: 28.7%
- viability, T/C [19]: 108%
- viability, T/C [20]: 104%
- viability, T/C [21]: 70.5%
- viability, T/C [22]: 45.6%
- viability, T/C [23]: 27.2%
- viability, T/C [24]: 30.8%
- viability, T/C [25]: 101%
- viability, T/C [26]: 103%
- viability, T/C [27]: 70.1%
- viability, T/C [28]: 40.6%
- viability, T/C [29]: 29.4%
- viability, T/C [30]: 31.1%
- viability, T/C [31]: 93.1%
- viability, T/C [32]: 79.6%
- viability, T/C [33]: 61.2%
- viability, T/C [34]: 32.4%
- viability, T/C [35]: 29.1%
- viability, T/C [36]: 32.8%

Structure (SMILES): O=c1[nH]cc(F)c(=O)[nH]1 + Cc1cccc(N(C)C(=O)C2C(O)CCN2c2nc(C)cc(C(F)(F)F)c2C#N)c1
- IC50 (second compound 0.0316 µM): 2440 nM
- IC50 (second compound 0.1 µM): 1380 nM
- IC50 (second compound 0.316 µM): 1820 nM
- IC50 (second compound 1 µM): 1680 nM
- IC50 (second compound 3.16 µM): 1340 nM
- IC50 (second compound 10 µM): 1690 nM
- viability, T/C [1]: 107%
- viability, T/C [2]: 91.7%
- viability, T/C [3]: 73.5%
- viability, T/C [4]: 57.7%
- viability, T/C [5]: 50.8%
- viability, T/C [6]: 34.5%
- viability, T/C [7]: 102%
- viability, T/C [8]: 96.7%
- viability, T/C [9]: 73.9%
- viability, T/C [10]: 52.6%
- viability, T/C [11]: 45%
- viability, T/C [12]: 37%
- viability, T/C [13]: 93%
- viability, T/C [14]: 87%
- viability, T/C [15]: 80%
- viability, T/C [16]: 57%
- viability, T/C [17]: 43.5%
- viability, T/C [18]: 34.9%
- viability, T/C [19]: 79.8%
- viability, T/C [20]: 84.6%
- viability, T/C [21]: 74.3%
- viability, T/C [22]: 57.1%
- viability, T/C [23]: 41.7%
- viability, T/C [24]: 37.5%
- viability, T/C [25]: 90.2%
- viability, T/C [26]: 82.5%
- viability, T/C [27]: 72.9%
- viability, T/C [28]: 50.2%
- viability, T/C [29]: 44.7%
- viability, T/C [30]: 36.2%
- viability, T/C [31]: 91.1%
- viability, T/C [32]: 85.5%
- viability, T/C [33]: 76.6%
- viability, T/C [34]: 51.7%
- viability, T/C [35]: 47.9%
- viability, T/C [36]: 34.4%
